Laboratory results taken from patent US20110218229A1, “SIRT1 Modulation of Adipogenesis and Adipose Function” (priority 2003, published 2011).

Legend:
[1] = system: primary rat white adipocytes; experiment: FFA release triggered by adrenalin in primary white adipocytes; assay type: cell-based; details: with adrenalin
Source text: To determine whether Sirt1 stimulates fat mobilization in bona fide adipocytes, we cultured primary rat white adipocytes and activated fat mobilization with the known β-adrenergic inducer adrenalin. […] In a converse experiment using these rat adipocytes, we addressed whether inhibition of Sirt1 would blunt the mobilization of fat by adrenalin. Addition of the known Sirt1 inhibitor nicotinamide 16 indeed reduced the release of FFA triggered by adrenalin. The above findings indicate that Sirt1 not only represses the differentiation program of adipocytes, but also activates the mobilization of fat in fully differentiated cells.
Cell culture, retroviral infection and transfection. 3T3-L1, HEK293, 293T and Phoenix cells (ATCC, Rockville, Md.) were cultured in Dulbecco's modified Eagle's medium with 10% FCS, and antibiotics. Primary adipocytes from Sprague-Dawley rats were prepared as described previously 25. Transfections for luciferase assays were done as described using pSPORT6-PPAR-γ2, pGL3-PPRE26 and pcDNA3-Sirt1. Data were corrected for transfection efficiency.

3T3-L1 adipocytes [2] = experiment: Free fatty acid (FFA) release in fully differentiated 3T3-L1 cells; assay type: cell-based, mouse
Experimental: (§1) We fully differentiated 3T3-L1 cells and subsequently (12 days after induction) applied the Sirt1 activator resveratrol over a wide range of concentrations. […] To validate further these visual results, we measured triglyceride content and free fatty acid (FFA) release in these cells.
Wild-type FVB male age-matched (12-16 weeks old) mice were used for the present studies. Sirt1+/+ and Sirt1+/− genotypes have been described previously 21. All mice were housed under controlled temperature (25±1° C.) and lighting conditions. Food provided was normal chow. All mice were cared for in accordance with the MIT animal care committee. Blood was collected from the retro-orbital sinus and kept on ice until centrifugation (1,500 g, 15 min at 4° C.), and the plasma was stored at −20° C. until analysis. All animals were killed by decapitation. WAT depots were collected, weighed and quickly frozen in liquid nitrogen and stored at −70° C. until further processing by immunoblotting. Non-esterified free fatty acids were determined by enzymatic assays (Wako Pure Chemical Industries).

UCP1 = UCP1 expression in BAT cells; assay type: cell-based
Source text: Further observations were made. A mouse genetically deficient for SIRT1 activity cannot regulate body temperature in the cold. The mouse appears unable to induce the UCP1 gene or related transcriptional programs. We used chromatin immunoprecipitations to characterize genes which may include regulatory sequences that are directly or indirectly bound by SIRT1. We discovered that, at least in brown fat cells, the UCP1 promoter is bound by SIRT1. SIRT1 responds to stress and activates UCP1 transcription. At least in part, the transcriptional activation is a result of the PGC1 co-factor, which is present in BAT cells, but absent in WAT cells, PGC1 modifies SIRT1 from a repressor to an activator. PGC1, SIRT1, and PPARγ are able to form a ternary complex which functions as a transcriptional activator. SIRT1 may have a similar function in other cells that express PGC1, e.g., muscle and liver cells. Moreover, resveratrol increases UCP1 expression in BAT cells.

3T3-L1 adipocytes [3] = experiment: Fat content by staining in fully differentiated 3T3-L1 cells; assay type: cell-based, mouse
Experimental: as §1
(§2) To stimulate adipogenesis and accumulation of lipids in cells, medium was supplemented to confluent cells (day 0) with 2 μM insulin or 10^−7M rosiglitazone (Alexis Biochemicals), as stated in the text, 1 μM dexamethasone, and 0.25 mM isobuthylmethylxanthine (IBMX) for 2 days. The cells were then incubated with insulin or 10^-7 M rosiglitazone, changing the medium every second day. Fat accumulation was visualized by staining of lipids with Oil red O. Intracellular triglyceride levels were measured in cell lysates by an enzymatic method using a reagent kit from Boehringer Mannheim.

3T3-L1 adipocytes [4] = experiment: Triglyceride content in fully differentiated 3T3-L1 cells; assay type: cell-based, mouse; details: control cells
Experimental: as §1, §2

3T3-L1 fibroblasts [5] = experiment: 3T3-L1 adipogenesis / differentiation (Oil Red O staining); assay type: cell-based, mouse
Experimental: The 3T3-L1 mouse fibroblasts used in this example, and in Examples 4-10 hereinafter, were prepared in accordance with standard protocol as follows. 3T3-L1 cells (ATCC CL-173, Rockville, Md.) were grown to confluence (day 0) in medium A (Dulbecco's modified Eagle's Medium with 10% fetal calf serum, 100 units/ml penicillin, and 100 μg/ml streptomycin). Confluent cell were incubated in medium A containing 2 μM insulin, 1 μM dexamethasone, and 0.25 mM isobuthyl methyl xanthine for two days. Thereafter, confluent fibroblasts were treated with insulin for five days and at the end of such treatment were in a condition for functional study. Adipogenesis was evaluated by analysis of the expression of adipocyte-specific markers and by staining of lipids with Oil Red O (Chawla & Lazar, 1994, Proc. Natl. Acad. Sci. USA 91, 1786-1790).
(§3) 3T3-L1 fibroblasts were transformed through standard techniques with either a pBABE control vector (“control fibroblasts”) or a vector comprising pBABE-mSIRT1 cDNA (“mSIRT1 cDNA fibroblasts”). Western Blot analyses of SIRT1 expression by the control and mSIRT1 cDNA fibroblasts were performed using antibodies and actin control as in Example 1.
(§4) 3T3-L1 fibroblasts were transformed with either a pSUPER control vector (“control fibroblasts”), a vector comprising pSUPER-mSIRT1 RNAi WT (SEQ ID NO: 24) (“mSIRT1 RNAi WT fibroblasts”), or pSUPER-mSIRT1 RNAiMUT (SEQ ID NO: 25), (“mSIRT1 RNAiMUT fibroblasts”). Western Blot analyses of SIRT1 expression by the control, mSIRT1 RNAi WT, and mSIRT1 RNAiMUT fibroblasts were performed using antibodies and actin controls as in Example 1.
To stimulate adipogenesis and accumulation of lipids in cells, medium was supplemented to confluent cells (day 0) with 2 μM insulin or 10^−7M rosiglitazone (Alexis Biochemicals), as stated in the text, 1 μM dexamethasone, and 0.25 mM isobuthylmethylxanthine (IBMX) for 2 days. […] Fat accumulation was visualized by staining of lipids with Oil red O. Intracellular triglyceride levels were measured in cell lysates by an enzymatic method using a reagent kit from Boehringer Mannheim.

3T3-L1 fibroblasts [6] = experiment: Isoproterenol-induced lipolysis in 3T3-L1 (fatty acid concentration); assay type: cell-based, mouse; details: day 7, isoproterenol (10^−5M), four hours; controls 0.627 mM (pBABE) and 0.508 mM (pSUPER)
Experimental: The amount of fat generated by adipocyte lipolysis should be proportional to the fat content of the adipocyte. In the experiment of this example, four samples of 3T3-L1 fibroblasts were prepared essentially as in Example 3 (except for the change in protocol noted below), and transformed as in Examples 4 and 5 with either pBABE control vector (“pBABE control fibroblasts”), pBABE-mSIRT1 cDNA (“mSIRT1 cDNA fibroblasts”), pSUPER control vector (“pSUPER control fibroblasts”), or pSUPER-mSIRT1 RNAi WT (SEQ ID NO: 24) (“mSIRT1 RNAi WT fibroblasts”).
Fatty acid concentrations in each of the four samples were measured four hours later and the results of these measurements are shown in FIG. 1. Six wells were used for each of the four samples. Results from the different wells were averaged.

3T3-L1 cells = experiment: Mitotic divisions after induction (BrdU incorporation) in 3T3-L1; assay type: cell-based, mouse
Source text: We evaluated whether the mammalian Sir2 orthologue, Sirt1, senses nutrient availability in WAT and mediates corresponding effects on fat accumulation. To probe whether Sirt1 may actually modulate adipogenesis, we used mouse 3T3-L1 fibroblasts as an in vitro model. Adipogenesis in these cells is promoted by the nuclear receptor PPAR-γ. Upon induction of adipogenesis by insulin, dexamethasone and isobutylmethylxanthine, we observed that Sirt1, protein levels increased and peaked at day 5 after hormonal stimulation. […] 3T3-L1 cells undergo one or two mitotic divisions after induction as a prelude to terminal differentiation.

[7] = system: C/EBPβ, C/EBPδ, C/EBPα, PPARγ, aP2; experiment: Adipogenesis transcription factor levels in 3T3-L1 (Western Blot, semi-quantitative RT-PCR); assay type: cell-based, mouse
Experimental: 3T3-L1 fibroblasts were transformed through standard techniques with either a pBABE control vector (“control fibroblasts”) or a vector comprising pBABE-mSIRT1 cDNA (“mSIRT1 cDNA fibroblasts”) in accordance with Example 4. Protein and total RNA was extracted from the differentiated cells. Western Blot analyses of levels of the PPARγ and C/EBPα transcription factors present in the protein extracts from the control and mSIRT1 cDNA fibroblasts were performed using antibodies and actin control as in Example 1.
Semi-quantitative RT-PCR analysis was also conducted to determine levels of the C/EBPβ, C/EBPδ, C/EBPα, PPARγ transcription factors and aP2 (PPARγ target gene) present in the protein and total RNA extracted from the control and mSIRT1 cDNA fibroblasts. In this analysis, GAPDH was used as an internal control for cDNA input in the PCR.
3T3-L1 fibroblasts were transformed through standard techniques with either a pSUPER control vector (“control fibroblasts”) or a vector comprising pSUPER-mSIRT1 RNAiWT ([…]) (“mSIRT1 RNAiWT fibroblasts”) in accordance with Example 5. Protein and total RNA was extracted from the differentiated cells. […]
Semi-quantitative RT-PCR analysis was also conducted to determine levels of the C/EBPβ, C/EBPδ, C/EBPα, PPARγ, and aP2 (PPARγ target gene) present in the protein and total RNA extracted from the control and mSIRT1RNAiWT fibroblasts. […]

SIRT1 = SIRT1 expression in transformed 3T3-L1 fibroblasts (Western Blot); assay type: cell-based, mouse; details: for SIRT1 expression level versus control fibroblasts: Western Blot, actin control
Experimental: Samples of inguinal, epididymal, and retroperitoneal WAT were taken from the mice and subjected to Western Blot analyses using actin as a control to determine if SIRT1 was expressed in each of the three samples. Protein samples were prepared from WAT adipocytes by lysis in RIPA buffer supplemented with protease inhibitors. Twenty micrograms of protein were resolved in 9% SDS-PAGE and transferred to nitrocellulose membranes. SIRT1 protein was probed with mSIRT1 antibody (Upstate Inc.) and detected by ECL (Amersham). An actin antibody (Santa Cruz) was used in the Western Blot as a control. Pronounced SIRT1 expression levels were detected in each of the three WAT samples.
as §3, §4
Retroviral infection was performed as described in Tontonoz et al. (1994) Cell 79:1147. Phoenix cells were transfected with either pBABE, pBABE-Sirt1, pSUPERretro (Oligoengine), pSUPERretro-Sirt1 RNAi (5′-GATGAAGTTGACCTCCTCA-3′, SEQ ID NO:24) or pSUPER-NCoR RNAi (5′-GCTGCATCCAAGGGCCATG-3′, SEQ ID NO:25) using Lipofectamine (Invitrogen). After 48 h of transfection, the medium containing retroviruses was collected, filtered, treated by polybrene (1 μg ml^−1) and transferred to 3T3-L1 target cells. Infected cells were selected with puromycin (2.5 μg ml^−1) for 7 days.

3T3-L1 fibroblasts [8] = experiment: Intracellular triglyceride levels in transformed 3T3-L1; assay type: cell-based, mouse; details: day 7, Folch extraction, six wells per condition
Experimental: Fibroblast intracellular trigylceride (“TG”) levels should decrease upon inhibition of fibroblast differentiation resulting from overexpression of SIRT1. Consistent with Examples 4 and 5, it should be possible to measure in a quantitative manner the amount of intracellular triglycerides that can be observed by Oil Red O staining. To do so, 3T3-L1 fibroblasts were prepared as in Example 3 and transformed as in Examples 4 and 5 with either pBABE control vector (“pBABE control fibroblasts”), pBABE-mSIRT1 cDNA (“mSIRT1 cDNA fibroblasts”), pSUPER control vector (“pSUPER control fibroblasts”), or pSUPER-mSIRT1 RNAi WT (SEQ ID NO: 24) (“mSIRT1 RNAi WT fibroblasts”).
At day 7, the cells were lysed in methanol and neutral lipids were extracted by the Folch method and resuspended in isopropanol. Triglyceride levels were measured by calorimetric methods using a commercial kit (Trig/GB #450032, Roche Diagnostics, Indianapolis, Ind.). Six wells per condition were analyzed.

## NC(=O)c1cccnc1 [nicotinamide]
[1]
  release of FFA triggered by adrenalin: reduced

## Oc1ccc(/C=C/c2cc(O)cc(O)c2)cc1 [resveratrol, 3,5,4′-trihydroxy-tans-stilbene]
[1]
  release of FFA triggered by adrenalin: greatly stimulated
3T3-L1 adipocytes [2]; Sirt1 knockdown cells
  release of FFA: but not in the Sirt1 knockdown cells
3T3-L1 adipocytes [2]; control cells
  release of FFA: stimulated
UCP1
  UCP1 expression: increases
3T3-L1 adipocytes [3]; cells in which Sirt1 levels were knocked down
  fat content after staining: no drug-mediated fat reduction
3T3-L1 adipocytes [3]; fully differentiated 3T3-L1 cells, 12 days after induction, 50 and 100 μM resveratrol
  fat content after staining: strong reduction in fat
3T3-L1 adipocytes [4]
  triglyceride content: reduced

## NCoR RNAi: pSUPER-NCoR RNAi virus, 5′-GCTGCATCCAAGGGCCATG-3′
3T3-L1 fibroblasts [5]; Sirt1-overexpressing 3T3-L1 fibroblasts infected with NCoR RNAi virus
  reduction of fat accretion by Sirt1 overexpression: largely prevented

## mSIRT1 RNAi WT: pSUPER vector with RNAi sequence 5′-GATGAAGTTGACCTCCTCA-3′ (SEQ ID NO: 24), interferes with SIRT1 expression
3T3-L1 fibroblasts [6]
  lipolysis level (fatty acid concentration): 0.727 mM
3T3-L1 fibroblasts [5]; Oil red O staining after 7 days of differentiation or intracellular triglyceride content
  fat / triglyceride accumulation versus control vector: significant increase in triglyceride accumulation
3T3-L1 fibroblasts [5]; transformed 3T3-L1 fibroblasts
  differentiation by Oil Red O staining versus control fibroblasts: marked increase in differentiation
3T3-L1 cells
  mitotic divisions after induction: occurred normally
[7]; Western Blot of extracts from differentiated cells
  PPARγ levels versus control fibroblasts: Higher levels of PPARγ
[7]; semi-quantitative RT-PCR, GAPDH internal control
  levels of C/EBPβ, C/EBPδ, C/EBPα, PPARγ and aP2: increased levels of all of the assayed transcription factors except C/EBPβ
SIRT1; retroviral infection of 3T3-L1 cells
  change of Sirt1 gene expression: downregulation (sevenfold)
3T3-L1 fibroblasts [8]
  TG levels versus respective control: higher

## mSIRT1 RNAiMUT: mutation of mSIRT1 RNAiWT, 5′-GATGAAGTCGACCTCCTCA-3′ (SEQ ID NO: 25) (expressed or natural sequence)
SIRT1
  SIRT1 expression level versus control fibroblasts: comparable with those of the control fibroblasts
SIRT1; listed as SIRT1 mRNAi-mut
  SIRT1 expression level versus control fibroblasts: no effect on SIRT1 expression
